21 compounds from US5691373A, “Nonpeptide endothelin antagonists I” (Warner-Lambert Company, priority 1995, dated 1997) can be followed below.

Test [1] concerns the target T1, ETA (Oryctolagus cuniculus, UniProt A5A8K3).
T1 sequence (A5A8K3 21-427): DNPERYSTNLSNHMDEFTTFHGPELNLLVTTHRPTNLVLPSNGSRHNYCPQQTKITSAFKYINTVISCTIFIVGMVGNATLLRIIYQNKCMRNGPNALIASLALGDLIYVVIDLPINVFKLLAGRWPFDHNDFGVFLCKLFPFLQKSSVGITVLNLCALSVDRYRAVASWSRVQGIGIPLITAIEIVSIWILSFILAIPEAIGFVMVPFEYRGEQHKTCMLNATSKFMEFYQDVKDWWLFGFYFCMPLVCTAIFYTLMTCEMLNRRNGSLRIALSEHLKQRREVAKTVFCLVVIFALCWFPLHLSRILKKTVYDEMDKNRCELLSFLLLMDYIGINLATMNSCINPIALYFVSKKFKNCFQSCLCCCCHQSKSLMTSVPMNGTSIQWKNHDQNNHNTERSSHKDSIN
The settings on record: ERBA-A IC50, [125I]-ET-1, rabbit renal artery vascular smooth muscle cells.

The target of test [2] is T2, human ETB receptor (Homo sapiens, UniProt P24530).
T2 construct: expressed in transfected cells; host or cells: CHO-K1 cells, pRc-CMW (so in the source) expression vector, electroporation; membranes used
T2 sequence (P24530 27-442): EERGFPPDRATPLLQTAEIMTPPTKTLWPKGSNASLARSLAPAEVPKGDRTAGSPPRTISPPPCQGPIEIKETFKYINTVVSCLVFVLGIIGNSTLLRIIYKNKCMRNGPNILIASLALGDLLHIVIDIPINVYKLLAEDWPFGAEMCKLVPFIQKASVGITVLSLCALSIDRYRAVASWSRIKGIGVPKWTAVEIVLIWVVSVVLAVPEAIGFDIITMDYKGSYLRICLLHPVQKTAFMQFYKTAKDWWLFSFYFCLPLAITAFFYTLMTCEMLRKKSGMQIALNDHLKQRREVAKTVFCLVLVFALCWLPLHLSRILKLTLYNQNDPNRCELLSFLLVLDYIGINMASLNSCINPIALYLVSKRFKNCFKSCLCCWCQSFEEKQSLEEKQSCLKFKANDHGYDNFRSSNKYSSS
Description: ERBA-B: [125I]-ET-1 binding, recombinant human ETB receptor expressed in CHO-K1 cells. As to conditions: human cloned ETB receptor, read-out: ERBA-B IC50, human cloned receptor data.

The structures appear in SMILES notation.

For the compound `COc1ccc(C2(O)OC(=O)C(c3ccc4c(c3)OCO4)=C2Cc2ccccc2)c(OCC(=O)O)c1` (stereo not drawn) [Example 341, [2(4-Benzo[1,3]dioxol-5-yl-3-benzyl-2-hydroxy-5-oxo-2,5-dihydro-furan-2-yl) -5-methoxy-phenoxy]-acetic acid], the IC50 (commonly the point on the concentration scale where inhibition reaches its midpoint) in test [1] was 80 nM; in test [2] it was above 2500 nM.
The corresponding values for `C=CCOc1cc(OC)ccc1CC1=C(c2ccc3c(c2)OCO3)C(=O)OC1(O)c1ccc(OC)cc1` (stereo not drawn) [Example 343, 4(2-Allyloxy-4-methoxy-benzyl)-3-benzo[1,3]dioxol-5-yl-5-hydroxy-5-(4-methoxy-phenyl)-5H-furan-2-one] are 10 nM and 2200 nM.
Turning to `COc1ccc(C2(O)OC(=O)C(c3ccc4c(c3)OCO4)=C2Cc2ccc(OC)cc2OCC(=O)O)cc1` (stereo not drawn) [Example 344, {2-[4-Benzo[1,3]dioxol-5-yl-2-hydroxy-2-(4-methoxy-phenyl)-5-oxo-2,5-dihydro-furan-3-ylmethyl]-5-methoxy-phenoxy}-acetic acid], the IC50 in test [1] is 380 nM; in test [2], above 25000 nM.
The corresponding values for `O=C(O)/C(=C(/Cc1ccccc1)C(=O)c1ccc(-n2ccnc2)cc1)c1ccc2c(c1)OCO2` [Example 348, 2-Butenoic acid, 2-(1,3-benzodioxol-5-yl)-4-[4-(1H-imidazol-1-yl)phenyl]4-oxo-3-(phenylmethyl)-] are 7100 nM and above 25000 nM.
For `COc1ccc(C(=O)/C(Cc2ccc(C(=O)NCCN3CCOCC3)cc2)=C(\C(=O)O)c2ccc3c(c2)OCO3)cc1` [Example 349, 2-benzo[1,3]dioxol-5-yl-4-(4-methoxy-phenyl)-3-[4-(2-morpholin-4-yl-ethylcarbamoyl)-benzyl]-4-oxo-but-2-enoic acid], in that order: 510 nM and 25000 nM.
The corresponding values for `COc1ccc(C(=O)/C(Cc2ccc(OC(C)C)cc2)=C(\C(=O)O)c2ccc3c(c2)OCO3)cc1` [Example 353, Sodium 2-Benzo[1,3]dioxol-5-yl-3-(4-isopropoxy-benzyl)-4-(4-methoxy-phenyl)-4-oxo-but-2-enoate] are 4.4 nM and above 250 nM.
Consider `COc1ccc(C(=O)/C(Cc2ccccc2)=C(\C(=O)O)c2ccc3c(c2)OCO3)cc1C` [Example 355, Sodium 2-Benzo[1,3]dioxol-5-yl-3-benzyl-4-(4-methoxy-3-methyl-phenyl)-4-oxo-but-2-enoate], for which the IC50 turned out to be 42 nM in test [1] and 1600 nM in test [2].
As for `CCOC(=O)COc1c(OC)cc(CC2=C(c3ccc4c(c3)OCO4)C(=O)OC2(O)c2ccc(OC)cc2)cc1OC` (stereo not drawn) [Example 362, {4-[4-Benzo[1,3]dioxol-5-yl-2-hydroxy-2-(4-methoxyphenyl)-5-oxo-2,5-dihydro-furan-3-ylmethyl]-2,6-dimethoxy-phenoxy}-acetic acid ethyl ester], the half-inhibitory concentration (IC50) came to 26 nM in test [1] and 1200 nM in test [2].
Consider `CCOC(=O)COc1cc(CC2=C(c3ccc4c(c3)OCO4)C(=O)OC2(O)c2ccc(OC)cc2)cc(OC)c1OC` (stereo not drawn) [Example 363, {5-[4-Benzo[1,3]dioxol-5-yl-2-hydroxy-2-(4-methoxyphenyl)-5-oxo-2,5-dihydro-furan-3-ylmethyl]-2,3-dimethoxy-phenoxy}-acetic acid ethyl ester], for which the 50% inhibitory concentration (IC50) in test [1] is below 2.5 nM; in test [2], 1100 nM.
As for `COc1ccc(C(=O)/C(Cc2ccc(NC(C)=O)cc2)=C(\C(=O)O)c2ccc3c(c2)OCO3)cc1` [Example 366, Potassium 3-(4-Acetylamino-benzyl)-2-benzo[1,3]dioxol-5-yl-4-(4-methoxy-phenyl)-4-oxo-but-2-enoate], the concentration for half-maximal inhibition (IC50) in test [1] stood at 7.3 nM; in test [2] it was 4900 nM.
On to `COc1ccc(C(=O)/C(Cc2ccccc2)=C(\C(=O)O)c2cc(OC)c3c(c2)OCO3)cc1` [Example 368, Sodium 3-Benzyl-2-(7-methoxy-benzo[1,3]dioxol-5-yl)-4-(4-methoxy-phenyl)-4-oxo-but-2-enoate], for which the half-maximal inhibitory concentration (IC50) in test [1] is below 25 nM; in test [2], 960 nM.
The corresponding values for `COc1ccc(C(=O)/C(Cc2ccccc2)=C(\C(=O)O)c2cc(OC)c3c(c2)OCO3)cc1C` [Example 370, Sodium 3-Benzyl-2-(7-methoxy-benzo[1,3]dioxol-5-yl)-4-(4-methoxy-3-methyl-phenyl)-4-oxo-but-2-enoate] are 10 nM and 1530 nM.
For `COc1ccc(C(=O)/C(Cc2cc(OC)c(OC)c(OC)c2)=C(\C(=O)O)c2cc(OC)c3c(c2)OCO3)cc1` [Example 371], in that order: 0.39 nM and 328 nM.
With `COc1ccc(C/C(C(=O)c2ccc(OC)cc2)=C(/C(=O)O)c2ccc3c(c2)OCO3)cc1` [Example 380, Sodium2-Benzo[1,3]dioxol-5-yl-3-(4-methoxy-benzyl)-4-(4-methoxy-phenyl)-4-o xo-but-2-enoate], the IC50 in test [1] turned out to be 24 nM; in test [2] it was 2000 nM.
For the compound `CCCCCCCCOc1ccc(CC2=C(c3cc(OC)cc(OC)c3)C(=O)OC2(O)c2ccc(OC)cc2)cc1OC` (stereo not drawn) [Example 381, 3-(3,5-Dimethoxy-phenyl)-5-hydroxy-4-(3-methoxy-4-octyloxy-benzyl)-5-(4-methoxy-phenyl)-5H-furan-2-one], the IC50 in test [1] worked out at 68 nM; in test [2], 570 nM.
For `COc1cc(OC)cc(C2=C(Cc3ccc(NC(C)=O)cc3)C(O)(c3ccc(OC)c(C)c3)OC2=O)c1` (stereo not drawn) [Example 385, N-{4-[4-(3,5-Dimethoxy-phenyl)-2-hydroxy-2-(4-methoxy-3-methyl-phenyl)-5-oxo-2,5-dihydro-furan-3-ylmethyl]-phenyl}-acetamide], in that order: 0.8 nM and 690 nM.
The corresponding values for `COc1cc(OC)cc(C2=C(Cc3ccc(OC(C)C)c(OC)c3)C(O)(c3ccc(OC)c(C)c3)OC2=O)c1` (stereo not drawn) [Example 390, 3-(3,5-Dimethoxy-phenyl)-5-hydroxy-4-(4-isopropoxy-3-methoxy-benzyl)-5-(4-methoxy-3-methyl-phenyl)-5H-furan-2-one] are 7 nM and 820 nM.
`COc1ccc(C2(O)OC(=O)C(c3ccc4c(c3)OCO4)=C2Cc2ccc(OC(C)C)c(OC)c2)cc1C` (stereo not drawn) [Example 391, 3-Benzo[1,3]dioxol-5-yl-5-hydroxy-4-(4-isopropoxy-3-methoxy-benzyl)-5-(4-methoxy-3-methyl-phenyl)-5H-furan-2-one]: the half-maximal inhibitory concentration (IC50) in test [1] is 1.8 nM; in test [2], above 250 nM.
The corresponding values for `COc1cc(OC)cc(/C(C(=O)O)=C(\Cc2c(OC)cc(OC)cc2OC)C(=O)c2ccc(OC)c(C)c2)c1` [Example 392] are 3800 nM and 14000 nM.
For `CCCCCCCCOc1ccc(CC2=C(c3cc(OC)cc(OC)c3)C(=O)OC2(O)c2ccc(OC)c(C)c2)cc1OC` (stereo not drawn) [Example 393, 3-(3,5-Dimethoxy-phenyl)-5-hydroxy-5-(4-methoxy-3-methyl-phenyl)-4-(3-methoxy-4-octyloxy-benzyl)-5H-furan-2-one], in that order: 240 nM and 830 nM.
The corresponding values for `CCCCCCCCOc1ccc(CC2=C(c3ccc4c(c3)OCO4)C(=O)OC2(O)c2ccc(OC)c(C)c2)cc1OC` (stereo not drawn) [Example 394, 3-Benzo[1,3]dioxol-5-yl-5-hydroxy-5-(4-methoxy-3-methyl-phenyl)-4-(3-methoxy-4-octyloxy-benzyl)-5H-furan-2-one] are 68 nM and 420 nM.
